Measured values as given in patent US10966426B2, “Herbicidal compositions comprising phenylpyrimidines” (BASF SE, priority 2016, dated 2021).

Experiments:
Type in all cases: in vivo
Matricaria chamomilla = assay: greenhouse post-emergence treatment, MATCH; conditions: MATCH
Procedure, shortened: (§1)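 Scale 0–100 damage rating (100 = complete destruction of above-ground parts, 0 = normal growth), read 2 to 4 weeks after post-emergence application of aqueous spray liquor to plants 3–15 cm tall.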

Bromus sterilis = assay: greenhouse post-emergence treatment, BROST; conditions: Bromus sterilis
Procedure, shortened: (§2)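 Greenhouse test in humus-containing (~3.0%) loamy sand at species-dependent temperatures of 10-25° C. or 20-35° C.; treatments applied in water. Damage rated visually after 2–4 weeks (0 = none, 100 = complete destruction or no emergence).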

Papaver rhoeas = assay: greenhouse post-emergence treatment, PAPRH; conditions: Papaver rhoeas
Procedure, shortened: as §1

Setaria viridis = assay: greenhouse post-emergence treatment, SETVI; conditions: Setaria viridis
Procedure, shortened: as §2

Digitaria sanguinalis = assay: greenhouse post-emergence treatment, DIGSA; conditions: Digitaria sanguinalis, DIGSA
Procedure, shortened: as §2

Polygonum convolvulus = assay: greenhouse post-emergence treatment, POLCO; conditions: Fallopia convolvulus
Procedure, shortened: as §1

Ambrosia elatior [1] = assay: greenhouse post-emergence treatment, AMBEL; conditions: AMBEL
Procedure, shortened: (§3)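 Loamy sand, ~3.0% humus; species sown separately; treated at 3–15 cm height; 10% w/w EC diluted in water; 10-25° C./20-35° C. per species; 2–4 wk; visual 0–100 rating.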

Avena fatua = assay: greenhouse pre-emergence treatment, AVEFA; conditions: Avena fatua, 480 h, 20 DAT, AVEFA
Procedure, shortened: (§4)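 Damage rated on 0 to 100 scale (0 = normal growth, 100 = no emergence or total above-ground kill) after 2-4 weeks at species-dependent 10-25° C or 20-35° C. Seeds sown per species in loamy sand, ~3.0% humus, treated right after sowing with aqueous spray of single actives or 10% emulsion-concentrate mixtures, then hooded; additive expectation by Colby.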

Poa annua = assay: greenhouse post-emergence treatment, POAAN; conditions: Poa annua
Procedure, shortened: as §3

Ambrosia elatior [2] = assay: greenhouse pre-emergence treatment, AMBEL; conditions: Ambrosia artemisiifolia, 480 h, 20 DAT, AMBEL
Procedure, shortened: as §4

Alopecurus myosuroides = assay: greenhouse post-emergence treatment, ALOMY; conditions: Alopecurus myosuroides, 480 h, 20 DAT, ALOMY
Procedure, shortened: as §2

[3] = cinmethylin solo (EC 750 g/l), 125 gai/ha, 21 DAT
[4] = 62.5 gai/ha (EC 750 g/l), Table X1, read-out: % activity, solo application

In the case of `Cc1ccccc1CO[C@@H]1C[C@@]2(C(C)C)CC[C@]1(C)O2` (racemic) [cinmethylin], the pest or weed control at 125 g/ha (Matricaria chamomilla; Matricaria chamomilla, 504 h, 21 DAT, solo cinmethylin (EC 750 g/l) 125 gai/ha) is reported as 0%, the “% activity” value (Matricaria chamomilla; [3]) is reported as 0% and the pest or weed control at 62.5 g/ha (Bromus sterilis; 504 h, read-out: % activity) is reported as 10%. It also gave a pest or weed control at 250 g/ha (Bromus sterilis; 504 h, read-out: % activity) of 25%, a pest or weed control at 62.5 g/ha (Papaver rhoeas; 504 h, PAPRH, 21 DAT, solo cinmethylin (EC 750 g/l) 62.5 gai/ha) of 0% and a pest or weed control at 125 g/ha (Papaver rhoeas; 504 h, read-out: % activity) of 20%. For the same compound, the pest or weed control at 250 g/ha (Papaver rhoeas; 504 h, read-out: % activity) was 20%, the pest or weed control at 500 g/ha (Papaver rhoeas; 504 h, read-out: % activity) was 55% and the pest or weed control at 125 g/ha (Setaria viridis; 504 h, SETVI, 21 DAT, solo cinmethylin (EC 750 g/l) 125 gai/ha) was 55%. For the same compound, the pest or weed control at 62.5 g/ha (Setaria viridis; 504 h, read-out: % activity) was 20%, the pest or weed control at 500 g/ha (Setaria viridis; 504 h, read-out: % activity) was 85% and the pest or weed control at 62.5 g/ha (Digitaria sanguinalis; 504 h, 21 DAT, solo cinmethylin (EC 750 g/l) 62.5 gai/ha, read-out: % activity) was 0%. The pest or weed control at 125 g/ha (Digitaria sanguinalis; 504 h, 21 DAT, solo cinmethylin (EC 750 g/l) 125 gai/ha, read-out: % activity) was 15%, the pest or weed control at 250 g/ha (Digitaria sanguinalis; 504 h, 21 DAT, solo cinmethylin (EC 750 g/l) 250 gai/ha, read-out: % activity) was 20% and the pest or weed control at 62.5 g/ha (Polygonum convolvulus; 504 h, read-out: % activity) was 0%. It also gave a pest or weed control at 125 g/ha (Polygonum convolvulus; 504 h, read-out: % activity) of 0%, a pest or weed control at 250 g/ha (Polygonum convolvulus; 504 h, read-out: % activity) of 0% and a pest or weed control at 500 g/ha (Polygonum convolvulus; 504 h, read-out: % activity) of 0%. For the same compound, the “% activity” value (Ambrosia elatior [1]; cinmethylin solo (EC 750 g/l), 62.5 gai/ha, 21 DAT) was 0%, the “% activity” value (Ambrosia elatior [1]; [3]) was 0% and the inhibition at 62.5 g/ha (Avena fatua; [4]) was 10%. The pest or weed control at 62.5 g/ha (Poa annua; 504 h, read-out: % activity) was 70%, the percent weed control (herbicidal activity, 0-100 scale) at 62.5 g/ha (Ambrosia elatior [2]; [4]) was 0% and the percent weed control (herbicidal activity, 0-100 scale) at 125 g/ha (Ambrosia elatior [2]; 125 gai/ha (EC 750 g/l), Table X1, read-out: % activity, solo application) was 0%.
In the case of `CSc1nnc(C(C)(C)C)c(=O)n1N` [metribuzin], the inhibition at 17.5 g/ha (Matricaria chamomilla; Matricaria chamomilla, 480 h, 20 DAT, metribuzin WG 70% solo 17.5 gai/ha) is reported as 0%, the inhibition at 35 g/ha (Matricaria chamomilla; Matricaria chamomilla, 480 h, 20 DAT, metribuzin WG 70% solo 35 gai/ha) is reported as 25% and the pest or weed control at 17.5 g/ha (Matricaria chamomilla; Matricaria chamomilla, 480 h, solo, WG 70%, 17.5 gai/ha, 20 DAT) is reported as 0%. The pest or weed control at 35 g/ha (Matricaria chamomilla; Matricaria chamomilla, 480 h, solo, WG 70%, 35 gai/ha, 20 DAT) was 25%, the pest or weed control at 17.5 g/ha (Bromus sterilis; 480 h, solo, WG 70%, BROST, 17.5 gai/ha, 20 DAT) was 25% and the pest or weed control at 35 g/ha (Bromus sterilis; 480 h, solo, WG 70%, BROST, 35 gai/ha, 20 DAT) was 55%. It also gave an inhibition at 17.5 g/ha (Alopecurus myosuroides; metribuzin WG 70% solo 17.5 gai/ha) of 0%, an inhibition at 35 g/ha (Alopecurus myosuroides; metribuzin WG 70% solo 35 gai/ha, read-out: % activity) of 10% and a pest or weed control at 17.5 g/ha (Alopecurus myosuroides; solo, WG 70%, 17.5 gai/ha) of 0%. For the same compound, the pest or weed control at 35 g/ha (Alopecurus myosuroides; solo, WG 70%, 35 gai/ha) was 10%, the pest or weed control at 17.5 g/ha (Papaver rhoeas; 480 h, solo, WG 70%, PAPRH, 17.5 gai/ha, 20 DAT) was 60% and the pest or weed control at 17.5 g/ha (Setaria viridis; 480 h, solo, WG 70%, SETVI, 17.5 gai/ha, 20 DAT) was 30%. For the same compound, the inhibition at 17.5 g/ha (Digitaria sanguinalis; 480 h, 20 DAT, metribuzin WG 70% solo 17.5 gai/ha) was 0%, the inhibition at 35 g/ha (Digitaria sanguinalis; 480 h, 20 DAT, metribuzin WG 70% solo 35 gai/ha) was 35% and the pest or weed control at 17.5 g/ha (Digitaria sanguinalis; 480 h, solo, WG 70%, 17.5 gai/ha, 20 DAT) was 0%. The pest or weed control at 35 g/ha (Digitaria sanguinalis; 480 h, solo, WG 70%, 35 gai/ha, 20 DAT) was 35%, the pest or weed control at 140 g/ha (Digitaria sanguinalis; 480 h, solo, WG 70%, 140 gai/ha, 20 DAT) was 85% and the inhibition at 17.5 g/ha (Polygonum convolvulus; 480 h, 20 DAT, POLCO, metribuzin WG 70% solo 17.5 gai/ha) was 0%. The inhibition at 35 g/ha (Polygonum convolvulus; 480 h, 20 DAT, POLCO, metribuzin WG 70% solo 35 gai/ha) was 0%, the inhibition at 70 g/ha (Polygonum convolvulus; 480 h, 20 DAT, POLCO, metribuzin WG 70% solo 70 gai/ha) was 60% and the inhibition at 140 g/ha (Polygonum convolvulus; 480 h, 20 DAT, POLCO, metribuzin WG 70% solo 140 gai/ha) was 70%. For the same compound, the inhibition at 17.5 g/ha (Ambrosia elatior [1]; Ambrosia artemisiifolia, 480 h, 20 DAT, metribuzin WG 70% solo 17.5 gai/ha) was 0%, the inhibition at 35 g/ha (Ambrosia elatior [1]; Ambrosia artemisiifolia, 480 h, 20 DAT, metribuzin WG 70% solo 35 gai/ha) was 0% and the inhibition at 70 g/ha (Ambrosia elatior [1]; Ambrosia artemisiifolia, 480 h, 20 DAT, metribuzin WG 70% solo 70 gai/ha) was 0%. The inhibition at 140 g/ha (Ambrosia elatior [1]; Ambrosia artemisiifolia, 480 h, 20 DAT, metribuzin WG 70% solo 140 gai/ha) was 70%, the “% activity” value (Ambrosia elatior [1]; solo, WG 70%, 17.5 gai/ha, 20 DAT) was 0% and the “% activity” value (Ambrosia elatior [1]; solo, WG 70%, 35 gai/ha, 20 DAT) was 0%. The “% activity” value (Ambrosia elatior [1]; solo, WG 70%, 70 gai/ha, 20 DAT) was 0%, the inhibition at 31.25 g/ha (Avena fatua; metribuzin WG 70% solo 31.25 gai/ha) was 30% and the inhibition at 17.5 g/ha (Poa annua; 480 h, 20 DAT, POAAN, metribuzin WG 70% solo 17.5 gai/ha) was 60%. For the same compound, the inhibition at 35 g/ha (Poa annua; 480 h, 20 DAT, POAAN, metribuzin WG 70% solo 35 gai/ha) was 70%, the pest or weed control at 17.5 g/ha (Poa annua; 480 h, solo, WG 70%, POAAN, 17.5 gai/ha, 20 DAT) was 60% and the percent weed control (herbicidal activity, 0-100 scale) at 250 g/ha (Ambrosia elatior [2]; metribuzin WG 70% solo 250 gai/ha) was 60%. For the same compound, the pest or weed control at 31.25 g/ha (Ambrosia elatior [2]; solo, WG 70%, 31.25 gai/ha) was 40%, the pest or weed control at 62.5 g/ha (Ambrosia elatior [2]; solo, WG 70%, 62.5 gai/ha) was 40% and the pest or weed control at 125 g/ha (Ambrosia elatior [2]; solo, WG 70%, 125 gai/ha) was 70%.
